Measurements from patent US7196105B2, “Treatment of human multiple myeloma by curcumin” (Research Development Foundation, priority 2002, dated 2007).

Experiments:
Assay type in all cases: cell-based, human
[1] = test system: cyclin D1; experiment: Western blot for NF-κB-regulated gene product cyclin D1 in U266 cells; conditions: curcumin 50 μM
Experimental: Sixty micrograms of cytoplasmic extracts were resolved on 10% SDS-PAGE gel, electrotransferred on a nitrocellulose membrane, and probed for the following: IκBα (FIG. 4A); Bcl-2 (FIG. 4B); Bcl-xL (FIG. 4C) and cyclin D1 (FIG. 4D). The same blots were stripped and reprobed with anti-β-actin antibody to show equal protein loading (lower panel in each figure). FIG. 4E: […] U266, MM.1 or RPMI 8226 cells (1×10^7) were treated with curcumin ([…]) in 5 ml of medium for the indicated times. Supernatants were harvested and concentrated approximately 20×, and IL-6 was quantitated by an IL-6 ELISA kit. Values shown were normalized to 1 ml of un-concentrated supernatants. Thirty to fifty micrograms of cytoplasmic protein extracts prepared as described (Chaturvedi et al., 2000) were resolved on 10% SDS-PAGE gel. After electrophoresis, the proteins were electrotransferred to a nitrocellulose membrane, blocked with 5% nonfat milk, and probed with antibodies against either IkBa, phospho-IkBa, Bcl-2, Bcl-xL, or cyclin D1 (1:3000) for 1 h. Thereafter, the blot was washed, exposed to HRP-conjugated secondary antibodies for 1 h, and finally detected by chemiluminescence (ECL, Amersham Pharmacia Biotech., Arlington Heights, Ill.).

[2] = test system: PARP; experiment: Western blot for PARP cleavage (apoptosis); conditions: U266, curcumin 50 μM, time course
Experimental: (§1) The cells were washed and total proteins were extracted by lysing the cells. Sixty microgram of extracts were resolved on 10% SDS-PAGE gel, electrotransferred to a nitrocellulose membrane, and probed with anti-procaspase-9 (FIG. 6C), anti-procaspase-7 (FIG. 6D), anti-PARP (FIG. 6E, upper panel) and anti-cleaved PARP (FIG. 6E, lower penal). […] Lysates were then spun at 14000 rpm for 10 min to remove insoluble material, resolved on 7.5% gel and probed with PARP antibodies. PARP was cleaved from the 116-kDa intact protein into 85-kDa and 40-kDa peptide products. To detect cleavage products of procaspase 7 and procaspase 9, whole cell extracts were resolved on 10% gel and probed with appropriate antibodies.

[3] = test system: U266 cells; experiment: Flow cytometric cell cycle analysis (propidium iodide); conditions: U266, 10 μM curcumin, 24 h
Experimental: U266 cells (2×10^6 cells/ml) were incubated in the absence or presence of curcumin (10 μM) for the indicated times. The cells were then washed, fixed, stained with propidium iodide, and analyzed for DNA content by flow cytometry. […] After incubation for overnight at −20° C., cells were washed with PBS prior to staining with propidium iodide (PI), and then suspended in staining buffer (PI, […]; Tween-20, 0.5%; RNase, 0.1% in PBS). The cells were analyzed using a FACS Vantage flow cytometer that uses CellQuest acquisition and analysis programs (Becton Dickinson, San Jose, Calif.).

[4] = test system: caspase-9; experiment: Western blot for procaspase-9 (apoptosis); conditions: U266, curcumin 50 μM, time course
Experimental: as §1

[5] = test system: IκBα phosphorylation; experiment: Western blot for phosphorylated IκBα in U266 cells; conditions: curcumin 50 μM, time course
Experimental: FIG. 3A: Level of phosphorylated IκBα determined by Western blotting. FIG. 3B: Immunoprecipitated IκB kinase and kinase assay of IκB kinase activity (upper panel) or Western blotting for the analysis of total IKKα and IKKβ proteins in cytoplasmic extracts (lower panel). FIG. 3C: IκB kinase was immunoprecipitated and kinase assay was performed in the absence or presence of the indicated concentrations of curcumin (upper panel). Lower panel indicates the amount of GST-IκBα protein stained with Coomassie Blue in each well in the same dried gel. Thirty to fifty micrograms of cytoplasmic protein extracts prepared as described (Chaturvedi et al., 2000) were resolved on 10% SDS-PAGE gel. After electrophoresis, the proteins were electrotransferred to a nitrocellulose membrane, blocked with 5% nonfat milk, and probed with antibodies against either IkBa, phospho-IkBa, Bcl-2, Bcl-xL, or cyclin D1 (1:3000) for 1 h. Thereafter, the blot was washed, exposed to HRP-conjugated secondary antibodies for 1 h, and finally detected by chemiluminescence (ECL, Amersham Pharmacia Biotech., Arlington Heights, Ill.).

[6] = test system: p65 subunit of NF-κB; experiment: Immunocytochemistry for NF-κB p65 localization in multiple myeloma cell lines; conditions: all four multiple myeloma cell lines, curcumin 50 μM, 4 hours
Experimental: Red stain indicates the localization of p65 and blue stain (Hoechst) indicates nucleus (magnification 200×). […] U266 cells (2×10^6 cells/ml) were treated with indicated concentrations of NEMO-control or NBD-peptide (100 μM) for the indicated times. Nuclear extracts were then checked for the presence of NF-κB DNA-binding activity by EMSA. […] Untreated or NBD-peptide-treated (100 μM; 12 h) U266 cells were cytospun, and p65 immunocytochemistry was performed as described. Red stain indicates the localization of p65 and blue stain indicates nucleus (magnification 200×). […] U266 cells (2×10^6 cells/ml) were treated with indicated concentrations of NEMO-control or NBD-peptide (100 μM) for the indicated time periods, and cell viability was monitored by the trypan blue dye exclusion method. Percent cell killing was determined as: (number of trypan blue stained cells/total cells)×100. […] Stained slides were mounted with mounting medium (Sigma Colo.) and analyzed under an epifluorescence microscope (Labophot-2, Nikon, Tokyo, Japan). […] Cells with nuclear staining of NF-κB p65 or STAT3 were counted separately. One hundred cells were counted for each specimen, and the sample was graded on the basis of a 4-point scale: −, no nuclear positive cells (0%); +, low number of nuclear positive cells (<10%); ++, moderate number of nuclear positive cells (10–50%); +++, high number of nuclear positive cells (>50%).

Structure (SMILES): COc1cc(/C=C/C(=O)CC(=O)/C=C/c2ccc(O)c(OC)c2)ccc1O [curcumin, diferuloylmethane]
- time to complete depletion of cyclin D1 [1]: ≤ 4 h
- PARP cleavage [2]: cleavage of a 118-kDa PARP protein into an 89-kDa fragment
- percentage of cells in the S phase ([3]; from 22% without treatment): 9%
- percentage of cells in the G1 phase ([3]; from 52% without treatment): 70%
- activation of caspase-9 (disappearance of 47-kDa band) [4]: time-dependent activation
- phosphorylated IκBα content [5]: decreased rapidly
- nuclear translocation of p65 [6]: prevented the translocation of the p65 subunit of NF-κB to the nucleus
